# Key:
# [1] = test system: peripheral blood mononuclear cells (PBMC), T cells; experiment: ELISpot assay, gamma-interferon release (SFC) after stimulation with a-synuclein epitope pools; format: cell-based, human; conditions: for Pool +: IFNg, Pool Stimulated, number of donors with a positive response, Donors tested 1
# Experimental: (§1) Blood from age matched controls and PD patients were obtained and mononuclear cells were isolated by gradient centrifugation.
# (§2) Release of the cytokines gamma-interferon, which measures activation of CD4+ and/or CD8+ T cells, and the interleukin, IL-5, which measures activation of CD4+ T cells was measured by ELISpot assay. […] After 22 hours of stimulation at 37 C, the cells were removed and release of cytokines was measured by colorimetric detection of spot-forming cells (SFC). Confirmed release of cytokine is determined by the presence of a minimum of 20 SFC per million cells.
# (§3) The binding algorithms in SubAim 1 predict how well the peptides would bind to MHC if present, but not if they are present in patients. To determine this, the presence of T cell response against the candidate antigens by patient blood-derived peripheral blood mononuclear cells (PBMC) is assessed by ELISPOT assays upon stimulation with the peptides. This assay detects and quantifies cytokine release (in this case, IFNγ and IL-5) from specific activated T cells.
# (§4) Data were obtained from blood samples (25 ml) from 44 PD patients and 24 age-matched controls. The experiments were conducted blindly. PBMCs from these samples were isolated and exposed to pools comprising the 122 candidate class I and class II antigens and phosphorylated S129 epitopes generated in Subaim 1. For the PBMCs responsive to the pooled peptides, the response was then deconvoluted to identify individual epitopes.
# (§5) PMBC fractions are recovered by standard methods with Ficoll gradient and T cells expansion (Oseroff et al., 2010). The methods for the analysis of T cell reactions and measurement of cytokines production using the enzyme-linked immunosorbent spot (ELISPOT) assay are published in analogous experiments to discover antigens in multiple sclerosis (Lolli et al., 2013) and in hay fever allergens (Oseroff et al., 2010). T cell responses are determined by measuring IFNγ and IL-5 release by ELISPOT. Statistical analysis of differences between populations is expected to be non-parametric and analyzed with the U-Mann-Whitney test. If there were a normal distribution of response, which is a priori unlikely as some patients have no T cell response, with an SD=1, 8 patients per group would be required to provide a p>90% that the study detect a >2 fold difference at a two-sided 0.05 significance level.
# [2] = test system: peripheral blood mononuclear cells (PBMC), T cells; experiment: ELISpot assay, IL-5 release (SFC) after stimulation with a-synuclein epitope pools; format: cell-based, human
# Experimental: as §1, §2, §3, §4, §5
# [3] = pool 'Phospho' (phosphorylated peptides)
# [4] = Patients Summary, PD patients, of donors tested (peptide)
# [5] = Patients Summary, PD patients, single peptide
# [6] = Patients Summary, Phospho pool peptides
# [7] = Patients Summary, Phospho pool peptides, 10 donors tested
# [8] = number of donors positive to the single peptide, second 'Pool Stimulated' section (from r296), 12 donors tested
# [9] = peptide + / donors tested (peptide), second 'Pool Stimulated' section (from r296), 12 donors tested
# [10] = peptides of pool 'Poshpho', 8 donors tested
# [11] = peptides of pool 'Poshpho', 8 donors tested, number of donors positive
# [12] = single peptide, second 'Pool Stimulated' section (from r296), 12 donors tested
Substance,Pool + [1],"Pool + [1, 3]","IFNg Peptide + (donors positive to the peptide) [1, 4]","IFNg Response Frequency [1, 5]","IFNg Total SFC [1, 5]","IFNg Avg SFC [1, 6]","IFNg Response Frequency [1, 6]","IFNg Total SFC [1, 6]","IFNg Peptide + (donors positive to the peptide) [1, 7]","IFNg Peptide + [1, 8]","IFNg Response Frequency [1, 9]","IFNg Avg SFC [1, 10]","IFNg Response Frequency [1, 10]","IFNg Total SFC [1, 10]","IL-g Peptide + (donors positive to the peptide) [2, 4]","IL-g Response Frequency [2, 5]","IL-g Total SFC [2, 5]","IL-g Peptide + [2, 8]","IL-g Response Frequency [2, 9]","IL-g Total SFC [2, 12]",also measured
3521.0023 (YEMPSEEGY; listed as Homo sapiens),0,1,0,0%,0 SFC,680 SFC,30%,2039 SFC,3,0,0%,333 SFC,13%,333 SFC,0,0%,0 SFC,1,50%,58 SFC,"IFNg Peptide + [1, 11]: 1; IL-g Avg SFC [2, 6]: 1593 SFC; IL-g Response Frequency [2, 6]: 10%; IL-g Total SFC [2, 6]: 1593 SFC; IL-g Peptide + (donors positive to the peptide) [2, 7]: 1; IL-g Avg SFC [2, 10]: 193 SFC; IL-g Response Frequency [2, 10]: 13%; IL-g Total SFC [2, 10]: 193 SFC; IL-g Peptide + [2, 11]: 1; IL-g Avg SFC [2, 12]: 58 SFC"
3521.0024 (DPDNEAYEM; listed as Homo sapiens),0,–,0,0%,0 SFC,–,–,–,–,–,50%,–,–,–,0,0%,0 SFC,1,50%,300 SFC,"IFNg Total SFC [1, 12]: 93.3 SFC; IL-g Avg SFC [2, 12]: 300 SFC"
3521.0025 (EEGAPQEGI; listed as Homo sapiens),0,–,1,25%,290 SFC,–,–,–,–,0,0%,–,–,–,2,50%,172 SFC,0,0%,0 SFC,"IFNg Avg SFC [1, 5]: 290 SFC; IFNg Total SFC [1, 12]: 0 SFC; IL-g Avg SFC [2, 5]: 86 SFC"
3521.0026 (MPSEEGYQD; listed as Homo sapiens),0,1,0,0%,0 SFC,407 SFC,40%,1627 SFC,4,0,0%,27 SFC,13%,27 SFC,0,0%,0 SFC,1,50%,66 SFC,"IFNg Peptide + [1, 11]: 1; IL-g Avg SFC [2, 6]: 773 SFC; IL-g Response Frequency [2, 6]: 10%; IL-g Total SFC [2, 6]: 773 SFC; IL-g Peptide + (donors positive to the peptide) [2, 7]: 1; IL-g Avg SFC [2, 10]: 93 SFC; IL-g Response Frequency [2, 10]: 13%; IL-g Total SFC [2, 10]: 93 SFC; IL-g Peptide + [2, 11]: 1; IL-g Avg SFC [2, 12]: 66 SFC"
3521.0027 (AYEMPSEEGY; listed as Homo sapiens),0,1,0,0%,0 SFC,700 SFC,20%,1400 SFC,2,0,0%,53 SFC,13%,53 SFC,0,0%,0 SFC,0,0%,0 SFC,"IFNg Peptide + [1, 11]: 1; IL-g Avg SFC [2, 6]: 530 SFC; IL-g Response Frequency [2, 6]: 20%; IL-g Total SFC [2, 6]: 1060 SFC; IL-g Peptide + (donors positive to the peptide) [2, 7]: 2; IL-g Avg SFC [2, 10]: 87 SFC; IL-g Response Frequency [2, 10]: 13%; IL-g Total SFC [2, 10]: 87 SFC; IL-g Peptide + [2, 11]: 1"
3521.0028 (MPSEEGYQDY; listed as Homo sapiens),0,1,0,0%,0 SFC,420 SFC,30%,1260 SFC,3,0,0%,40 SFC,13%,40 SFC,0,0%,0 SFC,0,0%,0 SFC,"IFNg Peptide + [1, 11]: 1; IL-g Avg SFC [2, 6]: 350 SFC; IL-g Response Frequency [2, 6]: 20%; IL-g Total SFC [2, 6]: 700.3 SFC; IL-g Peptide + (donors positive to the peptide) [2, 7]: 2; IL-g Avg SFC [2, 10]: 113 SFC; IL-g Response Frequency [2, 10]: 13%; IL-g Total SFC [2, 10]: 113 SFC; IL-g Peptide + [2, 11]: 1"
3521.0029 (NVGGAVVTGV; listed as Homo sapiens),0,–,0,0%,0 SFC,–,–,–,–,0,0%,–,–,–,0,0%,0 SFC,0,0%,0 SFC,"IFNg Total SFC [1, 12]: 0 SFC"
